Assay results as given in patent publication US12637424B2, “Pharmaceutical salt of an arylpyrrole derivative” (SENTINEL ONCOLOGY LIMITED, priority 2020, dated 2026).

Experiments:
[1] = tested on: HeLa cells engineered to inducibly express oncogenic KRasG12V; assay: Wild-type versus KRAS HeLa cell viability (Cell Titre Blue); assay type: cell-based; conditions: Homo sapiens, KRAS G12V transgene, 72 hours
Description: Thus, atropisomer A-2 was tested on HeLa cells engineered to inducibly express wild-type or oncogenic […] transgenes using the FLP-in/T-Rex system (Invitrogen). Cells were plated, and then treated with or without doxycycline to induce transgene expression, and then treated with serially-diluted atropisomer A-2. After 72 hours of incubation, cell viability was assessed using the Cell Titre Blue reagent (Promega) and a BMG Pherastar plate reader. The effect of PBD inhibition on cell viability with either wild-type or oncogenic G12V KRAS was assessed using GraphPad Prism.

[2] = molecular target: T1, PLK1 (catalytic domain) (Homo sapiens, UniProt P53350); assay: DiscoverX KinomeScreen competition binding assay
T1 construct: purchased DiscoverX; host or cells: E. coli (BL21-derived, T7 phage display) or HEK-293
T1 sequence (P53350 53-305 limits assumed): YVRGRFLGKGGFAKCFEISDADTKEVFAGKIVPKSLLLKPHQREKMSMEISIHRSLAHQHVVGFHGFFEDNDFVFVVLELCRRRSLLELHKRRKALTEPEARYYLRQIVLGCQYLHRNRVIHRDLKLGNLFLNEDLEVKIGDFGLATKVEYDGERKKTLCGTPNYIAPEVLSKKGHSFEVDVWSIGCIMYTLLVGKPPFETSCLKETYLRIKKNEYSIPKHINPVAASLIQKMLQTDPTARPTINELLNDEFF
Description: (§1) This has been investigated by testing atropisomer A-2 for off-target activity against a panel of ninety-seven kinases distributed across the kinome at a concentration of 3 μM using the DiscoverX KinomeScreen assay. The DiscoverX KinomeScreen assay is a site-directed competition binding assay which measures the binding affinity of a compound to a kinase, by use of a solid supported control compound which can bind or capture the kinases in solution. In the absence of a kinase-inhibitor test compound, all of the kinase will bind to the solid support. If a kinase-inhibitor test compound is added to the assay mix, the amount of kinase binding to the solid support will be reduced, the extent of reduction being dependent on the potency of the test compound as a kinase inhibitor. […] For most assays, kinase-tagged T7 phage strains were grown in parallel in 24-well blocks in an E. coli host derived from the BL21 strain. E. coli were grown to log-phase and infected with T7 phage from a frozen stock (multiplicity of infection=0.4) and incubated with shaking at 32° C. until lysis (90-150 minutes). The lysates were centrifuged (6,000×g) and filtered (0.2 μm) to remove cell debris. The remaining kinases were produced in HEK-293 cells and subsequently tagged with DNA for qPCR detection. Streptavidin-coated magnetic beads were treated with biotinylated small molecule ligands for 30 minutes at room temperature to generate affinity resins for kinase assays. The liganded beads were blocked with excess biotin and washed with blocking buffer (SeaBlock (Pierce), 1% BSA, 0.05% Tween 20, 1 mM DTT) to remove unbound ligand and to reduce non-specific phage binding. […] Test compounds were prepared as 40× stocks in 100% DMSO and directly diluted into the assay. All reactions were performed in polypropylene 384-well plates in a final volume of 0.02 ml. […] The beads were then re-suspended in elution buffer (1×PBS, 0.05% Tween 20, 0.5 μM non-biotinylated affinity ligand) and incubated at room temperature with shaking for 30 minutes. The kinase concentration in the eluates was measured by qPCR. Compounds that bind the kinase active site and directly (sterically) or indirectly (allosterically) prevent kinase binding to the immobilized ligand, will reduce the amount of kinase captured on the solid support. […] The strength of binding of the test molecule to the kinase can be expressed as the percent control (% Ctrl) The compound(s) were screened at 3000 nM concentration, and results for primary screen binding interactions are reported as ‘% Ctrl’, where lower numbers indicate stronger hits in the matrix on the following page(s). [formula] • negative control=DMSO (100% Ctrl) • positive control=control compound (0% Ctrl)

[3] = molecular target: T2, PLK4 (catalytic domain) (Homo sapiens, UniProt O00444); assay: DiscoverX KinomeScreen competition binding assay
T2 construct: purchased DiscoverX; host or cells: E. coli (BL21-derived, T7 phage display) or HEK-293
T2 sequence (O00444 12-265 limits assumed): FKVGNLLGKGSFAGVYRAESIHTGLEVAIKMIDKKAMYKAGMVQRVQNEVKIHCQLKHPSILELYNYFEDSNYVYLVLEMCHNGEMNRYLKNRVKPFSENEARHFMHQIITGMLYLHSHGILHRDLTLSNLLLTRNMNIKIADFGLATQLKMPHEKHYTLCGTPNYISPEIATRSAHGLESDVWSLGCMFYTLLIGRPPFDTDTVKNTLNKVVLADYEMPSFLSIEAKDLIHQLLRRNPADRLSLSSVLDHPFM
Description: as §1

[4] = Oral bioavailability and brain exposure in mouse PK; assay type: in vivo, Male CD-1 mice; conditions: mice
Description: Atropisomer A-2 was evaluated in an in vivo mouse model to determine brain and plasma concentrations following p.o. and i.v. dosing. Male CD-1 mice were dosed with atropisomer A-2, either by i.v. administration (2 mg/kg) or by p.o. administration (10 mg/kg). Eight samples were taken for analysis in the i.v. leg at 2, 10, 30 min, 1, 2, 4, 8, and 24 (for i.v) and 9 samples in the p.o. leg at 15, 30 min, 1, 2, 4, 8, 24, 48 and 72 hrs. Atropisomer A-2 was formulated in 10% DMSO/[…] hydroxypropyl-beta-cyclodextrin (20% w/v in water) for i.v. and p.o. dosing. N=3 mice per time point. Post dosing, terminal blood samples were taken from individual animals and delivered into labelled polypropylene tubes containing anticoagulant (EDTA). The samples were held on wet ice for a maximum of 30 min while sampling of all the animals in the cohort was completed. The blood samples were centrifuged for plasma (4° C., 21100 g for 5 min) and the resulting plasma transferred into corresponding labelled tubes. Terminal brains from each PO dosed animal were excised, rinsed with saline and placed into pre-weighed labelled polypropylene tubes and the samples re-weighed prior to storage. Quantitative bioanalysis was carried out using liquid chromatography—mass spectroscopy was performed. The results are shown in Tables 14 and 15 below and in FIGS. 12 and 13.

[5] = tested on: U87MG cells; assay: Mitotic phenotype classification; assay type: cell-based; conditions: 0.03 μM, 24 hours
Description: Distinct mitotic phenotypes are induced following inhibition of PLK1 and PLK4 in cells. […] Centriole assembly is controlled by PLK4, with inhibitors inducing a multipolar spindle phenotype due to centrosome defects which results in abnormal cyokinesis (Wong et al., 2015. Science 348(6239); 1155-1160). Cells were plated at 10 000/well in 96-well plates and incubated overnight. The following day atropisomer A-2 stocks in DMSO were diluted in medium then added to cells with a maximum final DMSO concentration on cells of 0.2%. Cells were incubated with the compound for 24 hours then fixed in 3.7% formaldeyde. Cells were permeabilised with 0.1% Triton X-100 then incubated with anti-phospho-histone H3 (Ser10) antibody (Abcam ab5176). The cells were washed with PBS then incubated with AlexaFluor 488 labelled goat anti-rabbit IgG (Invitrogen A11034) in the presence of 4 ug/ml Hoechst 33342 (Invitrogen H3570). Cells were washed in PBS then imaged on an Arrayscan VTi HCS instrument (Thermo Fisher) using the Target Activation V4 Bioapplication. A user-defined threshold was applied to identify mitotic cells based on the intensity of phospho-histone H3 staining. In a separate study, following the above protocol but using single compound concentrations of 0.03 μM for each of atropisomer A-1 and atropisomer A-2, the frequency of observed mitotic phenotypes in U87MG cells was manually assessed and classified into the following phenotypes: non-congressed chromosomes, multipolar spindles/abnormal cytokinesis, monopolar spindles, normal prometaphase, normal metaphase for each of A-1 and A-2.

[6] = 3 μM (3000 nM), lower = stronger binding, read-out: % Control

GI50 [1] | remaining binding at 3 µM [2, 6] | % Ctrl @ 3 μM ([2]; PLK1, screened at 3000 nM) | remaining binding at 3 µM [3, 6] | % Ctrl @ 3 μM ([3]; PLK4, screened at 3000 nM) | CI ([4]; 2 mg/Kg IV, plasma) | F ([4]; 10 mg/Kg PO vs 2 mg/Kg IV) | Structure (SMILES) | cells with abnormal cytokinesis [5] | cells with non-congressed chromosomes [5] | cells with normal mitotic phenotype [5]
2.08 nM | 97% | 97 % Ctrl | 100% | 100 % Ctrl | 20.5 mL/min/kg | 76% | CN(C)CCNC(=O)c1ccc(-c2ccc(-c3ccc(Cl)cc3)n2-c2ccccc2C(F)(F)F)cc1 (single isomer, unassigned) [Atropisomer A-2] |  |  | 
 |  |  |  |  |  |  | CN(C)CCNC(=O)c1ccc(-c2ccc(-c3ccc(Cl)cc3)n2-c2ccccc2C(F)(F)F)cc1 (single isomer, unassigned; atropisomer a) [Atropisomer A-1] | 24% | No evidence | 76%
